“Also recorded” adds a separate entry of the source. Read-outs that look alike come from different tables or passages of the source.

In series [1] the test system is patients with diabetic CRF. The conditions noted are these: cited from earlier work.
Series [2] concerns patients with CKD (rapidly-progressive and slowly-progressive). As to the kind of experiment: new clinical tests: investigational drug orally once daily for 24 weeks, CKD stage 3 or 4. It counts as in vivo, human. The conditions noted are these: for progress of worsening of the renal function (inclination of regression line to 1/sCr, before vs after): 24 weeks. From the text: During such a period, a good idea has occurred that the effect of the present compound is investigated after dividing the patients with CKD into groups where worsening of the renal function is rapid and is not. As a result, the patients with CKD were divided into a group where changes in the reciprocal sCr value (1/sCr) per month before administration of the test drug are 0.01 dL/mg or more and worsening of the renal function is rapidly progressing (hereinafter, that will be referred to as “rapidly progressive CKD patients”) and another group where said changes are less than 0.01 dL/mg (hereinafter, that will be referred to as “slowly progressive CKD patients”) and clinical tests comparing the effect of the present compound were carried out. (Hereinafter, that will be referred to as “new clinical tests”.) Such a yardstick where the changes in the reciprocal sCr value are 0.01 dL/mg or more followed the yardstick adopted in the application of “Kremezin (Registered Trade Mark)” which is the above-mentioned spherical adsorptive carbon preparation. Further, in the new clinical tests, dose of the present compound was increased to some extent so as to find the difference from the results in the old clinical tests. Summary and result of the new clinical tests will be mentioned as follows.
A clinical test for evaluating the efficacy and the safety of the present compound was conducted using the patients where the CKD stage was 3 or 4 as the object. Persons who meet the following selection criteria were selected from the patients who were diagnosed as CKD and receiving a conservation therapy. • Sex is withdrawn from the consideration. Pregnant women and mothers suckling a baby are however excluded. • Age is from 20 to 75 years old. • GFR value is 15 to 59. • Patients where the serum creatinine (sCr) value is within a range of 1.5 to 5.0 mg/dL at the start of the test, the measuring frequencies from 52 weeks before the test until the start of the test are thrice or more and the difference in the tested values in the initial and the final stages is 0.2 mg/dL or more (showing a rise). • Patients where a therapy with a pharmaceutical agent which is thought to suppress the progress of CKD (such as a spherical adsorptive carbon preparation) or a diet therapy is newly started during three month before the start of the test are excluded. • Moreover, patients having a symptom of cerebrovascular disturbance, patients with infectious disease and patients with peptic ulcer are excluded.
After that, the objects were divided into the rapidly-progressive CKD patients and slowly-progressive CKD patients.
As a result, in the new clinical tests, the groups to which the tablets containing the present compound as an active ingredient (test drug) are administered and to which the tablets containing no active ingredient though being undistinguishable from the test drug are divided into six groups in total. Thus, they are three groups for slowly-progressive CKD patients comprising a placebo-administered group, a 800 mg test drug-administered group and a 1600 mg test drug-administered group and other three groups for a rapidly-progressive CKD patients comprising a placebo-administered, a 800 mg test drug-administered group and a 1600 mg test drug-administered group whereby there are six groups in total. The weight mentioned hereinabove is a weight of the present compound contained in the test drug and is a dose for one day. […]

In series [3] the test system is rats with chronic renal failure. The conditions noted are these: adenine-induced chronic renal failure; cited from earlier work.

With `CN1C(=O)NC(=O)C1O` (stereo not shown) [the present compound, 5-hydroxy-1-methylhydantoin], the “inclination of the regression line of 1/sCr versus time” value in series [1] (200 mg/day group (n=11), after the administration (24 weeks), mean±S.D., p=0.01, Non-Patent Document 2) is given as −0.00046±0.00043; in series [1] (200 mg/day group (n=11), before the administration, mean±S.D., Non-Patent Document 2), −0.00075±0.00066; in series [1] (200 mg/day group (n=12), after the administration, p=0.016, Non-Patent Document 1) it was −0.0004±0.00047; in series [1] (200 mg/day group (n=12), before the administration, Non-Patent Document 1), −0.00078±0.00064; in series [1] (400 mg/day group (n=11), after the administration (24 weeks), mean±S.D., p=0.02, Non-Patent Document 2), −0.00066±0.00097; in series [1] (400 mg/day group (n=11), after the administration, p=0.024, Non-Patent Document 1) it was −0.00068±0.00096. Also, the “inclination of the regression line of 1/sCr versus time” value in series [1] (400 mg/day group (n=11), before the administration, Non-Patent Document 1) was −0.00098±0.00077; in series [1] (400 mg/day group (n=11), before the administration, mean±S.D., Non-Patent Document 2) it was −0.00098±0.00077. Also, the “side effect in the clinical test and in the clinical symptom” value in series [1] (200 or 400 mg/day orally for 24 weeks) is recorded as “No critical side effect”. For the same molecule, in series [1] (during the course of the clinical test, 200 or 400 mg/day for 24 weeks), the “accumulation of the pharmaceutical agent” value is listed as “no accumulation”. In addition, the “progress of worsening of the renal function (inclination of regression line to 1/sCr, before vs after)” value is recorded as “significantly suppressed or improved; also recorded: a downward-sloping inclination becomes somewhat upward rather than moderate” in series [2] (800 mg/day, rapidly-progressive CKD patients (five test subjects), Dunnett test); “No such an effect was achieved” in series [2] (800 mg/day, slowly-progressive CKD patients); “a certain effect was noted in a rapidly-progressive CKD patient but the effect was not so significant” in series [2] (1600 mg/day, rapidly-progressive CKD patients); “No effect was noted” in series [2] (1600 mg/day, slowly-progressive CKD patients). The “side effect / safety” value in series [2] (all cases including the 1600 mg/day-administered group, 24 weeks oral) was “almost no side effect is noted; also recorded: no critical side effect becoming a problem is observed”. For the same molecule, the “action on uremic toxin such as urea nitrogen and creatinine” value in series [3] was “action of lowering the uremic toxin”.

Values taken from patent publication US9801858B2, “Progress-supressing or improving agent for chronic kidney disease” (NIPPON ZOKI PHARMACEUTICAL CO., LTD., priority 2014, dated 2017).
